Measured values as given in US20220143079A1, “ORAL ADMINISTRATION OF SODIUM CHLORIDE TO PREVENT COMPLICATIONS ASSOCIATED WITH BOWEL CLEANSING WITH STIMULANT LAXATIVES” (SEAFORD PHARMACEUTICALS INC., priority 2019, published 2022).

System: colon of patients scheduled for colonoscopy
Assay: Quality of colon cleaning assessed by Boston Scale at colonoscopy
Type: in vivo
Settings: within the claimed regimen, result in words
Method: A prospective, open-label study involving four patients scheduled for their regular colonoscopy exam was conducted (Canadian Phase Onward Inc., Toronto, Ontario. CA). […] In addition to the standard instructions not to eat food and to drink only clear liquids, the selected patients were instructed to do the following on the day before the colonoscopy was to be performed: 1. at 10:00 AM orally taking three bisacodyl pills (Dulcolax®, Boehringer Ingelheim, Ingelheim am Rhein, Germany) with water (chewing or crushing the pills was prohibited); 2. at 3:00 PM dissolving the contents of a first sachet containing sodium picosulfate/magnesium oxide/citric acid combination ([…]®, Recordati S.p.A, Milan, Italy) with cold water and ingesting the solution after carefully stirring the solution to insure that the sodium picosulfate/magnesium oxide/citric acid combination was dissolved completely; […] […] Upon arrival at the clinic on the day of the colonoscopy, the patient's weight was recorded and blood pressure was taken and recorded and an out-patient colonoscopy was performed on each patient (North York Endoscopy Centre Inc., Toronto, Ontario, CA). The quality of the colon cleaning was assessed using the Boston Scale which is a well-established way of identifying the degree of colon cleanliness.

SMILES: CC(=O)Oc1ccc(C(c2ccc(OC(C)=O)cc2)c2ccccn2)cc1 [bisacodyl, ρ,ρ-diacetoxy-diphenyl-2-pyridylmethane]
- observed cleansing effect of the regimen component: initial expulsion of the bulk of the fecal matter
